Results from patent US8440830B2, “Tetrahydro-fused pyridines as histone deacetylase inhibitors” (4SC AG, priority 2007, dated 2013).

These molecules were tested on A549 NSCLC cells (assay: Cellular cytotoxicity assay (Alamar Blue), A549). Conditions: Homo sapiens, 72 h, upper end given as ≧100, read-out: IC50 (μM), cytotoxicity towards A549 NSCLC cells.
Assay type: cell-based
Protocol: The anti-proliferative activity of the histone deacetylase inhibitory compounds as described herein, is evaluated using the following cell lines: HeLa and HeLa-KB (cervical carcinoma), H460 (non small cell lung cancer), A549 (non-small cell lung cancer), MCF7 (breast carcinoma), MCF10A (normal, non tumorigenic breast epithelial), MDA-MB468 (breast carcinoma), MDA-MB435 (breast carcinoma), MDA-MB231 (breast carcinoma), SKBR-3 (breast carcinoma), SKOV-3 (ovarial carcinoma), A-2780 (ovarial carcinoma), RKO (colon carcinoma), HCT-15 (colon carcinoma), HCT-116 (colon carcinoma), PC3 (prostate carcinoma), BPH1 (benign prostate hyperplasia), AsPC1 (pancreatic carcinoma), Ca127 (tongue carcinoma), A-431 (vulva carcinoma), Hec1A (endometrial carcinoma), Saos-2 (osteosarcoma), U87MG (glioblastoma), WM266-4 (melanoma), K562 (chronic myeloid leukemia), EOL1 (acute hypereosinophilic myeloid leukemia), CCRF-CEM and CCRF-CEM VCR1000 (acute lymphoblastic leukemia sensitive and resistant towards Vincristine). For quantification of cellular proliferation/living cells the Alamar Blue (Resazurin) cell viability assay is applied (O'Brien et al. Eur J Biochem 267, 5421-5426, 2000). In this assay Resazurin is reduced to the fluorescent resorufine by cellular dehydrogenase activity, correlating with viable, proliferating cells. The examples are dissolved as 20 mM solutions in dimethylsulfoxide (DMSO) and subsequently diluted in semi-logarithmic steps. Cell lines are seeded at respective density into 96 well flat bottom plates in a volume of 200 μl per well. 24 h after seeding 1 μl each of the compound dilutions are added into each well of the 96 well plate. Each compound dilution is tested as quadruplicates. Wells containing untreated control cells are filled with 200 μl DMEM medium containing 0.5% v:v DMSO. The cells are then incubated with the compounds for 72 h at 37° C. in a humidified atmosphere containing 5% carbon dioxide. To determine the viability of the cells, 20 μl of a Resazurin solution (Sigma; 90 mg/l) are added. After 4 h incubation at 37° C. the fluorescence is measured at an extinction of λ=544 nm and an emission of λ=590 nm. For the calculation of the cell viability the emission value from untreated cells is set as 100% viability and the emission rates of treated cells are set in relation to the values of untreated cells. Viabilities are expressed as % values. The corresponding IC50 values of the compounds for cytotoxic activity are determined from the concentration-effect curves by means of non-linear regression.
For `COC(=O)c1ccc(NC(=O)N2CCc3nc(C(=O)Nc4ccccc4N)sc3C2)cc1` [Example 5, Methyl 4-[({2-[(2-aminophenyl)carbamoyl]-6,7-dihydro[1,3]thiazolo[5,4-c]pyridin-5(4H)-yl}carbonyl)amino]benzoate], the IC50 was no less than 0.2 µM. With `Nc1ccccc1NC(=O)c1nc2c(s1)CN(C(=O)Nc1ccc(Oc3ccccc3)cc1)CC2` [Example 6, N^2-(2-aminophenyl)-N5-(4-phenoxyphenyl)-6,7-dihydro[1,3]thiazolo[5,4-c]pyridine-2,5(4H)-dicarboxamide] the IC50 was no less than 0.2 µM. `Nc1ccccc1NC(=O)c1nc2c(s1)CN(C(=O)Nc1ccccc1OC(F)(F)F)CC2` [Example 8, N^2-(2-aminophenyl)-N5-[2-(trifluoromethoxy)phenyl]-6,7-dihydro[1,3]thiazolo[5,4-c]pyridine-2,5(4H)-dicarboxamide] was tested, and the IC50 was no less than 0.2 µM. `Nc1ccccc1NC(=O)c1nc2c(s1)CN(C(=O)Nc1ccc(OC(F)(F)F)cc1)CC2` [Example 9, N^2-(2-aminophenyl)-N5-[4-(trifluoromethoxy)phenyl]-6,7-dihydro[1,3]thiazolo[5,4-c]pyridine-2,5(4H)-dicarboxamide] showed an IC50 of no less than 0.2 µM. Work on `Nc1ccccc1NC(=O)c1nc2c(s1)CN(C(=O)Nc1ccccc1OC(F)F)CC2` [Example 10, N^2-(2-aminophenyl)-N5-[2-(difluoromethoxy)phenyl]-6,7-dihydro[1,3]thiazolo[5,4-c]pyridine-2,5(4H)-dicarboxamide] yielded an IC50 of no less than 0.2 µM. Work on `Nc1ccccc1NC(=O)c1nc2c(s1)CN(C(=O)Nc1ccc(OC(F)F)cc1)CC2` [Example 11, N^2-(2-aminophenyl)-N5-[4-(difluoromethoxy)phenyl]-6,7-dihydro[1,3]thiazolo[5,4-c]pyridine-2,5(4H)-dicarboxamide] yielded an IC50 of no less than 0.2 µM. Work on `CNC(=O)N1CCc2nc(C(=O)Nc3ccccc3N)sc2C1` [Example 17, N^2-(2-aminophenyl)-N^5-methyl-6,7-dihydro[1,3]thiazolo[5,4-c]pyridine-2,5(4H)-dicarboxamide] yielded an IC50 of no less than 0.2 µM. For `COCCN(C)C(=O)N1CCc2nc(C(=O)Nc3ccccc3N)sc2C1` [Example 20, N^2-(2-aminophenyl)-N^5-(2-methoxyethyl)-N^5-methyl-6,7-dihydro[1,3]thiazolo[5,4-c]pyridine-2,5 (41:1)-dicarboxamide], the IC50 was no less than 0.2 µM. `CCN(C(=O)N1CCc2nc(C(=O)Nc3ccccc3N)sc2C1)C(C)C` [Example 21, N^2-(2-aminophenyl)-N^5-ethyl-N^5-isopropyl-6,7-dihydro[1,3]thiazolo[5,4-c]-pyridine-2,5(4H)-dicarboxamide] gave an IC50 of no less than 0.2 µM. `CN(C)c1ccc(N(C)C(=O)N2CCc3nc(C(=O)Nc4ccccc4N)sc3C2)cc1` [Example 22, N^2-(2-aminophenyl)-N^5-[4-(dimethylamino)phenyl]-N^5-methyl-6,7-dihydro-[1,3]thiazolo[5,4-c]pyridine-2,5(4H)-dicarboxamide] showed an IC50 of no less than 0.2 µM. For `CN(C)c1cccc(N(C)C(=O)N2CCc3nc(C(=O)Nc4ccccc4N)sc3C2)c1` [Example 23, N^2-(2-aminophenyl)-N^5-[3-(dimethylamino)phenyl]-N^5-methyl-6,7-dihydro-[1,3]-thiazolo[5,4-c]pyridine-2,5(4H)-dicarboxamide], the IC50 was no less than 0.2 µM. With `COc1ccc(N(C)C(=O)N2CCc3nc(C(=O)Nc4ccccc4N)sc3C2)cc1OC` [Example 24, N^2-(2-aminophenyl)-N^5-(3,4-dimethoxyphenyl)-N^5-methyl-6,7-dihydro[1,3]-thiazolo[5,4-c]pyridine-2,5(4H)-dicarboxamide] the IC50 was no less than 0.2 µM. `Nc1ccccc1NC(=O)c1nc2c(s1)CN(C(=O)Nc1ccc(N3CCOCC3)nc1)CC2` [Example 34, N^2-(2-aminophenyl)-N^5-(6-morpholin-4-ylpyridin-3-yl)-6,7-dihydro[1,3]thiazolo[5,4-c]pyridine-2,5(4H)-dicarboxamide] was tested, and the IC50 was no less than 0.2 µM. `Nc1ccccc1NC(=O)c1nc2c(s1)CN(C(=O)Nc1ccc(N3CCC3)nc1)CC2` [Example 35, N^2-(2-aminophenyl)-N^5-(6-azetidin-1-ylpyridin-3-yl)-6,7-dihydro[1,3]thiazolo[5,4-c]pyridine-2,5(4H)-dicarboxamide] gave an IC50 of no less than 0.2 µM. With `COc1ccc(NC(=O)N2CCc3nc(C(=O)Nc4ccccc4N)sc3C2)cn1` [Example 38, N^2-(2-aminophenyl)-N^5-(6-methoxypyridin-3-yl)-6,7-dihydro[1,3]thiazolo[5,4-c]pyridine-2,5(4H)-dicarboxamide] the IC50 was no less than 0.2 µM. For `CCCCNC(=O)N1CCc2nc(C(=O)Nc3ccccc3N)sc2C1` [Example 40, N^2-(2-aminophenyl)-N^5-butyl-6,7-dihydro[1,3]thiazolo[5,4-c]pyridine-2,5(4H)-dicarboxamide], the IC50 was no less than 0.2 µM. In the case of `Nc1ccccc1NC(=O)c1nc2c(s1)CN(C(=O)NC1CCC(c3cccnc3)CC1)CC2` (stereo not shown) [Example 41, N^2-(2-aminophenyl)-N^5-(4-pyridin-3-ylcyclohexyl)-6,7-dihydro[1,3]thiazolo[5,4-c]pyridine-2,5(4H)-dicarboxamide], the IC50 is reported as no less than 0.2 µM. With `Nc1ccccc1NC(=O)c1nc2c(s1)CN(C(=O)NC1CCNCC1)CC2` [Example 42, N^2-(2-aminophenyl)-N^5-piperidin-4-yl-6,7-dihydro[1,3]thiazolo[5,4-c]pyridine-2,5(4H)-dicarboxamide] the IC50 was no less than 0.2 µM. Work on `COc1ccc(NC(=O)N2CCc3nc(C(=O)Nc4cc(OC)ccc4N)sc3C2)cc1` [Example 43, N^2-(2-amino-5-methoxyphenyl)-N^5-(4-methoxyphenyl)-6,7-dihydro[1,3]thiazolo[5,4-c]pyridine-2,5(4H)-dicarboxamide] yielded an IC50 of no less than 0.2 µM. In the case of `Nc1ccccc1NC(=O)c1nc2c(s1)CN(C(=O)NC1CCC(c3ccncc3)CC1)CC2` (stereo not shown) [Example 44, N^2-(2-aminophenyl)-N^5-(4-pyridin-4-ylcyclohexyl)-6,7-dihydro[1,3]thiazolo[5,4-c]pyridine-2,5(4H)-dicarboxamide], the IC50 is reported as no less than 0.2 µM. Work on `COc1ccc(NC(=O)N2CCc3nc(C(=O)Nc4cc(C(C)C)ccc4N)sc3C2)cc1` [Example 45, N^2-(2-amino-5-isopropylphenyl)-N^5-(4-methoxyphenyl)-6,7-dihydro[1,3]thiazolo[5,4-c]pyridine-2,5(4H)-dicarboxamide] yielded an IC50 of no less than 0.2 µM. Molecule `COc1ccc(N)c(NC(=O)c2nc3c(s2)CN(C(=O)Nc2cccc4cnccc24)CC3)c1` [Example 46, N^2-(2-amino-5-methoxyphenyl)-N^5-isoquinolin-5-yl-6,7-dihydro[1,3]thiazolo[5,4-c]pyridine-2,5(4H)-dicarboxamide] has an IC50 of no less than 0.2 µM. With `COc1ccc(N)c(NC(=O)c2nc3c(s2)CN(C(=O)Nc2ccc(N(C)C)cc2)CC3)c1` [Example 47, N^2-(2-amino-5-methoxyphenyl)-N^5-[4-(dimethylamino)phenyl]-6,7-dihydro-[1,3]thiazolo[5,4-c]pyridine-2,5(4H)-dicarboxamide] the IC50 was no less than 0.2 µM. In the case of `COc1ccc(NC(=O)N2CCc3nc(C(=O)Nc4cc(C(C)C)ccc4N)sc3C2)cc1OC` [Example 48, N^2-(2-amino-5-isopropylphenyl)-N^5-(3,4-dimethoxyphenyl)-6,7-dihydro[1,3]thiazolo[5,4-c]pyridine-2,5(4H)-dicarboxamide], the IC50 is reported as no less than 0.2 µM. `CC(C)c1ccc(N)c(NC(=O)c2nc3c(s2)CN(C(=O)Nc2cccc4cnccc24)CC3)c1` [Example 49, N^2-(2-amino-5-isopropylphenyl)-N^5-isoquinolin-5-yl-6,7-dihydro[1,3]thiazolo[5,4-c]pyridine-2,5(4H)-dicarboxamide] gave an IC50 of no less than 0.2 µM. Molecule `CC(C)c1ccc(N)c(NC(=O)c2nc3c(s2)CN(C(=O)Nc2ccc(N(C)C)cc2)CC3)c1` [Example 50, N^2-(2-amino-5-isopropylphenyl)-N^5-[4-(dimethylamino)phenyl]-6,7-dihydro[1,3]thiazolo[5,4-c]pyridine-2,5(4H)-dicarboxamide] has an IC50 of no less than 0.2 µM. `COc1ccc(N)c(NC(=O)c2nc3c(s2)CN(C(=O)Nc2ccc(F)cc2)CC3)c1` [Example 51, N^2-(2-amino-5-methoxyphenyl)-N^5-(4-fluorophenyl)-6,7-dihydro[1,3]thiazolo[5,4-c]pyridine-2,5(4H)-dicarboxamide] gave an IC50 of no less than 0.2 µM. For `CC(C)c1ccc(N)c(NC(=O)c2nc3c(s2)CN(C(=O)Nc2ccc(F)cc2)CC3)c1` [Example 52, N^2-(2-amino-5-isopropylphenyl)-N^5-(4-fluorophenyl)-6,7-dihydro[1,3]thiazolo[5,4-c]pyridine-2,5(4H)-dicarboxamide], the IC50 was no less than 0.2 µM.
